Test [1] deals with T1, rat galectin-5 (rGal-5) (Rattus norvegicus, UniProt P47967).
T1 construct: we used the full-length protein to obtain structural information on the N-terminal tail; made in house
Description: Glycan array (609 compounds) tested with biotinylated rGal-5, Alexa555-streptavidin detection. It is filed as binding. The note with it: 100 µg/mL biotinylated rGal-5; ranking in words. The method, then:
The array consisted of 609 compounds covering glycans and polysaccharides printed onto commercial NHS-activated Slide H (Schott Nexterion, Jena, Germany), tested with 100 µg/mL biotinylated rGal-5 and involving Alexa555-labeled streptavidin (Thermo Fisher Scientific, Eugene, OR, USA) as second-step reagent for Innoscan 1100AL scanner-based (Innopsys, Carbonne, France) signal qualification, expressed in medium relative fluorescence units (RFU) and medium absolute deviation (MAD), as described previously. When the fluorescence intensity exceeded the background value by a factor of five, the respective signal was considered to be significant.

Test [2] concerns the target T1, rat galectin-5 (rGal-5). In words: Isothermal titration calorimetry (ITC) of ligand binding to recombinant rGal-5. The method, then:
The spacered B (type 2) tetrasaccharide was synthesized as described previously. Titrations were monitored in a PEAQ-ITC calorimeter (Malvern, Westborough, MA, USA), using a galectin-containing solution of 250 µL in PBS (10 mM Na2HPO4, 2 mM KH2PO4, 137 mM NaCl and 3 mM KCl at pH 6.8) containing 10 mM β-mercaptoethanol and injections at 150 s intervals of 2 µL ligand-containing solution (up to adding 36.4 µL) at 25 °C (750 rpm), as described. The protein concentration was 125 μM, and the ligand concentration in the syringe was 2.5 mM. In each titration, a fitted offset parameter was applied to account for potential background. Data processing was performed using the MiroCal PEAQ-ITC Analysis software.

Where [3] appears, read: 25 °C, individual titration, protein 125 μM, ligand 2.5 mM in syringe, PBS pH 6.8, read-out: Kd.
Where [4] appears, read: (summarises Table 2), read-out: dissociation constant.

Values joined by “and” are separate entries in the source; they are usually repeats but may differ in a detail not shown here. Identical values can stand only once. Like-named read-outs stand apart in the source and are kept apart here.

The text below walks through data of publication PMC8699261, “Structural Characterization of Rat Galectin-5, an N-Tailed Monomeric Proto-Type-like Galectin” (Biomolecules, 2021).

T1 sequence (P47967 whole entry): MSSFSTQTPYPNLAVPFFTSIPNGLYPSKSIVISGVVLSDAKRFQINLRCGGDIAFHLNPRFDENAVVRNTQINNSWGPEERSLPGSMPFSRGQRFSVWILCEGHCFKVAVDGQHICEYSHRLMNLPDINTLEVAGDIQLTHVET

As to `CC(=O)N[C@H]1C(O)O[C@H](CO)[C@@H](O[C@@H]2O[C@H](CO)[C@H](O)[C@H](O[C@H]3O[C@H](CO)[C@H](O)[C@H](O)[C@H]3O)[C@H]2O)[C@@H]1O` (some centres unmarked), the “signal intensity in glycan array” value on rat galectin-5 (rGal-5) [1] was “frontrunners in terms of signal intensity”.

Regarding `OC[C@H]1O[C@@H](O[C@H]2[C@H](O)[C@@H](O)C(O)O[C@@H]2CO)[C@H](O)[C@@H](O)[C@H]1O` (mixture of isomers) [Lactose, lactose], at rat galectin-5 (rGal-5) [2] (25 °C, individual titration), the Stoichiometry is 0.95 ± 0.05 and 0.99 ± 0.06; the ΔG0obs is -5.35 kcal/mol and -5.22 kcal/mol; the ΔH0obs is -4.99 ± 0.08 kcal/mol and -5.03 ± 0.41 kcal/mol; the “−TΔS0obs” value was -0.36 kcal/mol and -0.18 kcal/mol. Moreover, the Kd at rat galectin-5 (rGal-5) [2] (setting [3]) is 121 µM and 151 µM. Moreover, the Kd at rat galectin-5 (rGal-5) [2] (setting [4]) stood at 136 ± 16 µM.

As to `CC(=O)N[C@H]1C(O)O[C@H](CO)[C@@H](O[C@@H]2O[C@H](CO)[C@H](O)[C@H](O)[C@H]2O)[C@@H]1O` (some centres unmarked) [LacNAc, N-acetyllactosamine], at rat galectin-5 (rGal-5) [2] (25 °C, individual titration), the Stoichiometry was 0.92 ± 0.01 and 0.94 ± 0.20; the ΔG0obs was -6.1 kcal/mol and -6.0 kcal/mol; the ΔH0obs was -10.0 ± 0.2 kcal/mol and -10.5 ± 2.6 kcal/mol; the “−TΔS0obs” value was 3.87 kcal/mol and 4.43 kcal/mol. Moreover, the Kd at rat galectin-5 (rGal-5) [2] (setting [3]) is 28.6 µM and 32.3 µM. In addition, the Kd on rat galectin-5 (rGal-5) [2] (setting [4]) came to 30.5 ± 1.9 µM.

On to “histo-blood-group B (type 2) tetrasaccharide [Tetrasacc haride]”, for which, on rat galectin-5 (rGal-5) [2] (25 °C, individual titration), the Stoichiometry is 0.98 ± 0.01 and 0.94 ± 0.01; the ΔG0obs is -7.11 kcal/mol; the ΔH0obs is -5.74 ± 0.03 kcal/mol and -5.60 ± 0.03 kcal/mol; the “−TΔS0obs” value is -1.37 kcal/mol and -1.51 kcal/mol. At rat galectin-5 (rGal-5) [2] (setting [3]), the Kd was 5 µM and 6.1 µM. Moreover, the Kd on rat galectin-5 (rGal-5) [2] (setting [4]) worked out at 5.5 ± 0.6 µM. For the same molecule, the “signal intensity in glycan array” value on rat galectin-5 (rGal-5) [1] is “frontrunners in terms of signal intensity”.
